Tests used:
human ALK5 = biological target: T1, human ALK5 (Homo sapiens, UniProt P36897); test: KinaseProfiler enzymatic activity inhibition; format: biochemical; conditions: KinaseProfiler, 9-point curve, top 10 μM; read-out: Enzyme activity inhibition IC50 (nM) ALK5 (TGFBR1)
T1 construct: purchased Eurofins (Kinase Profiler service)
T1 sequence (P36897 34-503): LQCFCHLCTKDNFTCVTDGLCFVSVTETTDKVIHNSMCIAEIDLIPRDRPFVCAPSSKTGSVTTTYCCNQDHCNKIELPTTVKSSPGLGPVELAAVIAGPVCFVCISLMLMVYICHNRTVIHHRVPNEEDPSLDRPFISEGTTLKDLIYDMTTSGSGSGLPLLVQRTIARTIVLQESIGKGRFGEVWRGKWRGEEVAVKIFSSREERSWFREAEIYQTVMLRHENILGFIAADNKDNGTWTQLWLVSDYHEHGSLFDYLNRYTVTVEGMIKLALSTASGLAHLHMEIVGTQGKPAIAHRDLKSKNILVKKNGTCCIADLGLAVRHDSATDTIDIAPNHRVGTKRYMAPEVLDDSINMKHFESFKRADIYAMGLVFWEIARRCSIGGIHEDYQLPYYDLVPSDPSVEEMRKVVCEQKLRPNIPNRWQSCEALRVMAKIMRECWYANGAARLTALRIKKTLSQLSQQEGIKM
Method: Briefly, human ALK5 was incubated with 8 mM MOPS pH 7.0, 0.2 mM EDTA, 1 mM MnCl2, 2 mg/mL casein, 10 mM MgAcetate and [γ-33P-ATP] (specific activity approx. 500 cpm/pmol, concentration as required). The reaction was initiated by the addition of the MgATP mix. After incubation for 40 minutes at room temperature, the reaction was stopped by the addition of a 3% phosphoric acid solution. 10 μL of the reaction was then spotted onto a P30 filtermat and washed three times for 5 minutes in 75 mM phosphoric acid and once in methanol prior to drying and scintillation counting.
Compounds were tested using a 9-point curve with half-Log serial dilutions. The top concentration tested was 10 μM. Test compounds were prepared in 100% DMSO.

MTO129 liver metastases = test: Mouse liver metastasis initiation/formation assay with MTOs; format: in vivo; conditions: FIG. 13, 1× dose
Text: Mouse tumor organoids (MTOs) are derived from compound transgenic mice (conditional mutations in Apc, Kras, Trp53 and Tgfbr2, as well as bearing Lgr5-EGFP/CreER^T2) of the C57BL6/J strain and cultured as described in Tauriello et al. 2018 Nature 554(7693): 538-543. doi: 10.1038/nature25492. Organoids are tumor epithelial cells grown in a 3D matrix where they adopt an organotypic architecture, typically as spheroids with a lumen. In this way, cells retain a relatively normal polarity (which means that the outside surface, inside/luminal surface and cell-cell contacts are individually specialized), which is more physiological than in conventional 2D cell culture.
In all experiments described in present invention MTO129 were used (Tauriello et al. Nature. 2018).
In patients, treatment doses were reduced to 80 to 150 mg b.i.d in a regime of 14 days on-14 days off.
MTOs expressing a luciferase reporter were measured by bioluminescence imaging, using retroorbital injection of 50 μl 15 mg/ml D-luciferin potassium salt (Resem BV). Photons per second from the region spanning thorax/abdomen were quantified and normalized to the measure at the day of injection.
Control mice were treated with 150 μl of vehicle.
In the experiment shown in FIG. 13, potency of the indicated compounds to inhibit metastasis formation was assessed. Mice were treatments with indicated compounds started two days after MTO129 transplantation and continued during two weeks. Mice were sacrificed at 4 weeks post transplantation and liver metastases (LiMs) were counted by eye on fixed livers.

Cre-ER^T2 fusion protein = biological target: T2, Cre-ER^T2 fusion protein (Homo sapiens, UniProt P03372, G400V/L544A/M543A/V595A); test: In vivo gene recombination in UbCre-ER^T2; mTmG mice (EGFP immunohistochemistry); set-up: species or system mouse
T2 construct: Cre recombinase (fusion partner); tissue Jax Stock: 008085; host or cells: liver of transgenic UbCre-ER^T2; mTmG mice (transgene product); the other entry of the earlier key: cre (P06956, Recombinase cre)
Method: Using the UbCre-ER^T2; mTmG mice described in example 6, we treated these animals with the prodrug of formula VII at 1 or 5 μmol (approximately 0.6 or 3 mg, respectively) or with a vehicle control (oil). Five days after treatment, mice were sacrificed, and the liver was fixed overnight in 10% phosphate-buffered formalin (sigma) and embedded in paraffin, similar to the description of example 3 (FIG. 1).

[1] = system: NTCF4-ER^T2 fusion protein in LS174T cells; test: Co-culture LS174T-NTCF4-ER^T2 gene expression assay; format: cell-based; conditions: 16h
Method: These LS-NE cells were cultured in DMEM supplemented with L-glutamine and 10% fetal bovine serum (Life Technologies) at 37° C. and 5% CO2.
HEK293T cells transduced with pLenti PGK-LigF (puro) or with an equivalent empty vector were co-plated with LS174T-NTCF4-ER^T2 (LS-NE) cells, in a ratio of 1/10 in 6-well plates. Co-cultures were treated with DMSO, 1 μM Z-4-OHT or the prodrug of formula VII at 1 or 10 μM. After 16h, cells were lysed in trizol for RNA extraction (PureLink RNA Mini Kit, Life Technologies) and cDNA preparation (High Capacity cDNA RT kit, Applied Biosysytems). […] Data in FIG. 11 were normalized to the housekeeping gene, and to DMSO controls. Data are the average of technical replicates (+SD) from a single experiment.

LigF = biological target: T3, LigF (Sphingobium sp., UniProt P30347); test: In vitro LigF cleavage of prodrug, HPLC-MS/MS; format: biochemical, Sphingobium sp. strain SYK-6; conditions: 37° C.
T3 construct: made in house; host or cells: E. coli BL21 (DE3) Rosetta lysS
T3 sequence (P30347 1-257): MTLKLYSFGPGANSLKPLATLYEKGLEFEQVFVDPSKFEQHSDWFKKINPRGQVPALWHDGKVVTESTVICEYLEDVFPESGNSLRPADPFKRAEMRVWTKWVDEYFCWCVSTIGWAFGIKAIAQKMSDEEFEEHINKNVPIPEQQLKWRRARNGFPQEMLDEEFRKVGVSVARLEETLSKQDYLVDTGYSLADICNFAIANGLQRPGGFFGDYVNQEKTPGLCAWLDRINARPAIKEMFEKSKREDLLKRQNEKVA
Method: Similar to the in vitro assay in 5.2., the compound of formula VII was diluted from a 30 mM stock solution in DMSO to 50 μM in 20 mM Tris-HCl (pH 7.5), 1 mM glutathione and 15 μg/ml LigF was added. However, the reaction mixture was incubated at 37° C. and the read-out was different: using HPLC-MS/MS. Reaction samples, as well as a control sample without enzyme and Z-4-OHT (4-hydroxytamoxifen) as a standard were diluted 2:3 in MeOH and 2 μl was injected onto a BioBasic C18 column (5 μm, 2.1×150 mm, Thermo; using a Thermo EC Finnigan Mod Micro AS autosamples and Thermo EC Quarternary pump, Finnigan Mod. Surveyor MS chromatograph) with a water-MeOH gradient (60-90% MeOH in 30 min; 90-100% in 5 min; 100 μl/min flow rate). LC-MS coupling was performed with the Advion Triversa Nanomate (Advion BioSciences, Ithaca, N.Y., USA) as the nanoESI source performing nanoelectrospray through chip technology. The Nanomate was attached to an LTQ-FT Ultra mass spectrometer and operated at a spray voltage of 1.7 kV and a delivery pressure of 0.5 psi in positive mode. In a LTQ-FT Ultra (Thermo Scientif) mass spectrometer, analyses were performed using 40V capillary voltage and 120V tube lens voltage. MS/MS was operated in a data-dependent acquisition (DDA) mode and in selected reaction monitoring (SRM) mode. Survey MS scans were acquired in the FT with the resolution (defined at 400 m/z) set to 100,000. Up to six of the most intense ions per scan were fragmented and detected in the linear ion trap. The ion count target value was 1,000,000 for the survey scan and 50,000 for the MS/MS scan. Target ions already selected for MS/MS were dynamically excluded for 30 s. For SRM, maximum injective was set to 400 ms and 2 microscans average.
Data are represented as XIC (extracted ion chromatogram) peak areas of parallel reaction monitoring (PRM) transitions, using QuanBrowser (Xcalibur software 2.0SR2).

[2] = biological target: T4, Cre-ER^T2 fusion protein in MEFs (Homo sapiens, UniProt P03372, G400V/L544A/M543A/V595A); test: Co-culture MEF recombination assay (mTmG reporter, FACS); format: cell-based, mouse
T4 construct: Cre recombinase (fusion partner); host or cells: mouse embryonic fibroblasts from UbC-Cre-ER^T2; mTmG transgenic mice; the other entry of the earlier key: cre (P06956, Recombinase cre)
T4 sequence (P03372 with tags, fused parts or gaps G400V/M543A/L544A/V595A): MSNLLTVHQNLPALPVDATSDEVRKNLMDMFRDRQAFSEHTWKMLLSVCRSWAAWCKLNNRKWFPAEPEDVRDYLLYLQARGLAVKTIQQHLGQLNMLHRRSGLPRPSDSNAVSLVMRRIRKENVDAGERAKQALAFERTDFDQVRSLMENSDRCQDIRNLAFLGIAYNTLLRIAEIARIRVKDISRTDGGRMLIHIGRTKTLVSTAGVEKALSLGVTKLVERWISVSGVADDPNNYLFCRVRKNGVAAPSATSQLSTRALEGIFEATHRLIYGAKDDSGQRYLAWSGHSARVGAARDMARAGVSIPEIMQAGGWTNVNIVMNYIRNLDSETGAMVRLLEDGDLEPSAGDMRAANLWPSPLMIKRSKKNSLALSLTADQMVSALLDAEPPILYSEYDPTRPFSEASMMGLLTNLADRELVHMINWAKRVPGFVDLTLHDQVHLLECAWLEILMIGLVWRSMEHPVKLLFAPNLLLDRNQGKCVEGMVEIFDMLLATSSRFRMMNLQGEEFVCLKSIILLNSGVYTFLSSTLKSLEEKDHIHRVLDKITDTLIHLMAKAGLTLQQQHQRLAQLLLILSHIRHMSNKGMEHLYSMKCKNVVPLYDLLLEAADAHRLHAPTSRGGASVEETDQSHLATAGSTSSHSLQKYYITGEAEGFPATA
Text: The mouse model carries recombination reporter mTmG (JAX stock: 007676). This system expresses the membrane bound tdTomato (tandem dimer tomato; mT stands for membrane Tomato), which is a red fluorescent protein. Upon recombination with an activated Cre enzyme, the coding sequence for mT as well as a stop codon, being between loxP sites, is excised. […] Effectively this means that in the presence of a Cre enzyme, or in the presence of a 4-OHT activated Cre-ER^T2 fusion protein, the cells stop their production of tdTomato and proceed to express the EGFP; this genetic switch can be efficiently quantified by flow cytometry analysis. The mouse strain expressing mTmG was then crossed to a mouse carrying a Cre-ER^T2 fusion protein in all cells (UbC-Cre-ER^T2; Jax Stock: 008085). From the dual transgenic mouse, as well as from the reporter strain without Cre-ER^T2, MEFs were harvested from 14-day-old embryos. Briefly, pregnant females were sacrificed 14 days after plug formation, uteri were removed, and embryos were dissected: heads and fetal livers were discarded. The rest was minced and digested with trypsin and grown in 10-cm plates with aforementioned supplemented DMEM.
MEF recombination: MTO129, transduced with pLenti PGK-LigF (puro) or with an equivalent empty vector was trypsinized and single cells added onto UbC-Cre-ER^T2; mTmG (or control mTmG-only) MEFs grown in 12-well plates. The next day, either Z-4-OHT or the prodrug of formula VII was added in concentrations ranging from 1000 to 1 nM. Two days later, cells were trypsinized and analyzed by flow cytometry for TdTomato/EGFP fluorescence (Gallios, Beckman Coulter). Fluorescence was analyzed on viable cells in 2 dimensions and scored as percentages in the 4 quadrants. EGFP positive quadrants (Q2 and Q4, with or without TdTomato) were considered recombined and the fraction of the total was calculated. Data are the average (+SD) from two independent experiments.

[3] = UbC-Cre-ER^T2, mTmG MEFs with LigF-expressing MTO129, 1000 to 1 nM, two days

For `Cc1cccc(-c2nn3c(c2-c2ccnc4cc(O)ccc24)CCC3)n1` [Reference compound 338, 4-[2-(methyl-pyridin-2-yl) 5,6-dihydro-4H-pyrrolo[1,2-b]pyrazol-3-yl]-quinolin-7-ol, reference compound], the IC50 (human ALK5) was 371 nM.

For `COc1cc(C(=O)COc2ccc3nccc(-c4c(-c5cccc(C)n5)nn5c4CCC5)c3c2)ccc1O` [prodrug of formula III, 1-(4-hydroxy-3-methoxyphenyl)-2-((4-(2-(6-methylpyridin-2-yl)-5,6-dihydro-4H-pyrrolo[1,2-b]pyrazol-3-yl)quinolin-6-yl)oxy)ethan-1-one], the IC50 (human ALK5) was 836 nM.

For `Cc1cccc(-c2nn3c(c2-c2ccnc4ccc(OC(=O)N5CCC(N6CCCCC6)CC5)cc24)CCC3)n1` [prodrug of formula IV, 4-(2-(6-methylpyridin-2-yl)-5,6-dihydro-4H-pyrrolo[1,2-b]pyrazol-3-yl)quinolin-6-yl [1,4′-bipiperidine]-1′-carboxylate], the “activity in preventing liver metastasis formation, in words” value (MTO129 liver metastases) was “more robustly than galunisertib” and the IC50 (human ALK5) was 2280 nM.

For `CCC(=C(c1ccc(OCCN(C)C)cc1)c1ccc(OCC(=O)c2ccc(O)c(OC)c2)cc1)c1ccccc1` (racemic) [prodrug of formula VII, 2-(4-(1-(4-(2-(dimethylamino)ethoxy)phenyl)-2-phenylbut-1-en-1-yl)phenoxy)-1-(4-hydroxy-3-methoxyphenyl)ethan-1-one], the “gene recombination and EGFP expression in liver” value (Cre-ER^T2 fusion protein; 1 or 5 μmol, five days after treatment) was “dose-dependent activation of gene recombination and EGFP expression”, the “gene recombination in peripheral tissues compared to the liver” value (Cre-ER^T2 fusion protein; Example 7 mouse treatment) was “lower” and the “transcriptional switch (KRT20 up, ASCL2 down)” value ([1]; HEK293T-LigF, 10 μM) was “achieved the same response”. The cleavage plateau (LigF; 50 μM, 15 μg/ml LigF) was 50%, the “time to half way to the plateau” value (LigF; 50 μM, 15 μg/ml LigF) was 3 h and the “time to reach cleavage plateau” value (LigF; 50 μM, 15 μg/ml LigF) was “approximately 30 hours”. For the same molecule, the “stability in control without LigF” value (LigF; all other components present) was “remained intact”, the “gene recombination in MEFs (fraction EGFP positive)” value [2, 3] was “very similar to 4-OHT” and the “gene recombination in MEFs (fraction EGFP positive)” value ([2]; without LigF etherase (printed: MEFs lacking UbC-ER^T2)) was “only some recombination at the highest dose”.

“4-hydroxytamoxifen [4-OHT, reference compound]” was tested, and the “transcriptional switch (KRT20 up, ASCL2 down)” value ([1]; HEK293T negative for LigF, 1 μM) was “able to induce the transcriptional switch” and the “gene recombination in MEFs (fraction EGFP positive)” value [2, 3] was “dose-dependent gene recombination”.

Molecule `Oc1ccc2c(-c3c(-c4ccccn4)nn4c3CCC4)ccnc2c1` [Reference compound 337, 4-(2-pydridin-2-yl-5,6-dihydro-4H-pyrrolo[1,2-b]pyrazol-3-yl)-quinolin-7-ol, reference compound] has an IC50 (human ALK5) of 320 nM.

Source: patent US20220089600A1, “TGFß INHIBITOR AND PRODRUGS” (FUNDACIÓ INSTITUT DE RECERCA BIOMÈDICA (IRB BARCELONA), priority 2018, published 2022)
